Reference: patent publication US20120115806A1 (SANOFI, priority 2009, published 2012)

What was measured:
[1] = system: patients with metastatic breast cancer previously treated with anthracyclines and taxanes; conditions: cabazitaxel (D1) in combination with capecitabine (twice a day, D1-14)
Description: The main inclusion criteria were an age of 18 or older, a histologically proven metastatic or locally recurrent breast cancer that was inoperable, an Eastern Cooperative Oncology Group performance status (ECOG PS) of 0 to 2, prior exposure to taxanes and to anthracyclines, and adequate hematological, renal and hepatic function.
The main exclusion criteria were a simultaneous cancer, more than one chemotherapy treatment for metastatic cancer, prior exposure to capecitabine, or uncontrolled significant comorbid conditions.
Thirty-three patients with metastatic breast cancer were included in the study, all previously treated with anthracyclines and taxanes: 15 patients for part 1 and 18 for part 2.
The dose-limiting toxicities (DLTs), i.e. the list of events to be monitored, which make it possible to guide the dose escalation, were first of all predefined in the protocol in accordance with the NCI-CTCAE classification scale, version 3.
The increase in doses was studied in groups of three patients as long as no DLT was observed.

[2] = Phase I/II study: pharmacokinetics and drug interaction study; conditions: patients, part 1; parent and metabolite
[3] = system: patients with metastatic breast cancer; assay: Phase I/II study: tolerance and treatment characteristics
Protocol: Part 2: the antitumor activity and the characterization of the tolerance profile were determined at the recommended dose.
The capecitabine is administered orally twice a day, in the morning and evening, from day D1 to day D14 (from the 1st to the 14th day of the cycle).
The doses could be reduced and the treatment cycle duration could be extended in the case of a severe adverse event (AE). The treatment was continued until disease progression, the presence of an unacceptable AE or the withdrawal of patient consent.
A physical examination, complete differential leukocyte and blood counts, and blood chemistry analyses were carried out before the recruitment of the patients and regularly during treatment. Tumor evaluation by radiology was carried out at recruitment of the patients and every 6 weeks. The responses were confirmed by 2 evaluations at least 4 weeks apart. Supplementary data were collected every 6 weeks until the date the study was stopped.

[4] = system: taxane-resistant metastatic breast cancer; conditions: 1-h i.v. infusion every 3 weeks; Ann. Oncol. 2008, 19(9), 1547-1552; cited from earlier work
[5] = system: Thymidine Phosphorylase (TP) expression in MCF-7 breast carcinoma cells; conditions: especially with MCF-7 breast carcinoma cells; abstract, French Pharmacology Society Conference 2008; cited from earlier work
[6] = DL2: 20 mg/m^2 cabazitaxel + 2 × 1000 mg/m^2/day capecitabine for 14 days, 21 patients
[7] = Total, all dose levels, 33 patients

CCCCCOC(=O)Nc1nc(=O)n([C@@H]2O[C@H](C)[C@@H](O)[C@H]2O)cc1F [capecitabine, 5′-deoxy-5-fluoro-N4-(pentyloxycarbonyl)cytidine N-[1-(5-deoxy-beta-D-ribofuranosyl)-5-fluoro-2-oxo-1,2-dihydropyrimidin-4-yl]carbamic acid pentyl ester]
maximal administered dose (MAD) [1]: 1000 mg/m^2 | recommended dose (RD) ([1]; highest dose at which less than 33% of patients exhibited a DLT): 1000 mg/m^2 | pharmacokinetics affected by coadministration of the other agent [2]: vice versa | Number of patients with dose reduction [3, 6]: 3 | Number of patients with dose reduction [3, 7]: 7

4α-acetoxy-2α-benzoyloxy-5β,20-epoxy-1β-hydroxy-β,10β-dimethoxy-9-oxotax-11-en-13α-yl (2R,3S)-3-tert-butoxycarbonylamino-2-hydroxy-3-phenylpropionate [cabazitaxel]
pharmacokinetics affected by coadministration of the other agent [2]: do not appear to be affected | Number of patients with dose reduction [3, 6]: 4 | Number of patients with dose reduction [3, 7]: 10 | efficacy in taxane-resistant metastatic breast cancer [4]: can be effective | induction of TP expression [5]: induces TP expression
